Laboratory results as given in US8916557B2, “Substituted 4-Aryl-N-phenyl-1,3,5-triazin-2-amines” (Bayer Intellectual Property GmbH, priority 2011, dated 2014).

Assays:
CDK9/CycT1 = molecular target: T1, CDK9/CycT1 (Homo sapiens, UniProt P50750); test: CDK9/CycT1 kinase assay (TR-FRET); format: biochemical; details: Method 1, 10 μM ATP
T1 construct: Recombinant full-length His-tagged human CDK9 and CycT1; His; purchased Invitrogen PV4131; host or cells: insect cells
In short: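 Full-length His-tagged human CDK9/CycT1 (insect-cell expressed), 15 min compound pre-incubation, then 25 min at 22 °C with 10 µM ATP (final) and 1 µM biotinylated peptide (final) in Tris pH 8.0/MgCl2 buffer. Phospho-substrate detected by TR-FRET (anti-RB pSer807/pSer811, Eu anti-mouse IgG, streptavidin-XL665); 665/622 nm emission ratio as read-out.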

[1] = test system: Caco-2 human colorectal carcinoma; test: Proliferation assay (crystal violet), Caco-2; format: cell-based; details: CACO-2 cells, read-out: Inhibition of CACO-2 cell proliferation
Method: Cultivated tumour cells (NCI-H460, human non-small cell lung carcinoma cells, ATCC HTB-177; DU 145, hormone-independent human prostate carcinoma cells, ATCC HTB-81; HeLa-MaTu, human cervical carcinoma cells, EPO-GmbH, Berlin; HeLa-MaTu-ADR, multidrug-resistant human cervical carcinoma cells, EPO-GmbH, Berlin; HeLa human cervical tumour cells, ATCC CCL-2; Caco-2 human colorectal carcinoma, ATCC HTB-37; B16F10 mouse melanoma cells, ATCC CRL-6475) were plated at a density of 5000 cells/well (DU145, HeLa-MaTu-ADR), 3000 cells/well (NCI-H460, HeLa-MaTu, HeLa), 1500 cells/well (Caco-2), or 1000 cells/well (B16F10) in a 96-well multititer plate in 200 μL of their respective growth medium supplemented 10% fetal calf serum. After 24 hours, the cells of one plate (zero-point plate) were stained with crystal violet (see below), while the medium of the other plates was replaced by fresh culture medium (200 μl), to which the test substances were added in various concentrations (0 μM, as well as in the range of 0.001-10 μM; the final concentration of the solvent dimethyl sulfoxide was 0.5%). The cells were incubated for 4 days in the presence of test substances. Cell proliferation was determined by staining the cells with crystal violet: the cells were fixed by adding 20 μl/measuring point of an 11% glutaric aldehyde solution for 15 minutes at room temperature. After three washing cycles of the fixed cells with water, the plates were dried at room temperature. The cells were stained by adding 100 μl/measuring point of a 0.1% crystal violet solution (pH 3.0). After three washing cycles of the stained cells with water, the plates were dried at room temperature. The dye was dissolved by adding 100 μl/measuring point of a 10% acetic acid solution. The extinction was determined by photometry at a wavelength of 595 nm. The change of cell number, in percent, was calculated by normalization of the measured values to the extinction values of the zero-point plate (=0%) and the extinction of the untreated (0 μm) cells (=100%). The IC50 values were determined by means of a 4 parameter fit.

T1 sequence (P50750 whole entry): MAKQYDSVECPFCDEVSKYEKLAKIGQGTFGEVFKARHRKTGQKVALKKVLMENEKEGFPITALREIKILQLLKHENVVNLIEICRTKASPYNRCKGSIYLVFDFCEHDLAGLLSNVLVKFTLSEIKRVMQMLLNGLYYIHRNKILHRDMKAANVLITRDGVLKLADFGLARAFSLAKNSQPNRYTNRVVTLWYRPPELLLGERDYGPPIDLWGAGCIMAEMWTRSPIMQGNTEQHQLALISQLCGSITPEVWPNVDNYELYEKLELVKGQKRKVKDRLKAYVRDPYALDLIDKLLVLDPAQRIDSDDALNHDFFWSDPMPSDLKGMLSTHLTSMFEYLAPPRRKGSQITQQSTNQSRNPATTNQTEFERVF
T1 sequence (O60563 whole entry partner): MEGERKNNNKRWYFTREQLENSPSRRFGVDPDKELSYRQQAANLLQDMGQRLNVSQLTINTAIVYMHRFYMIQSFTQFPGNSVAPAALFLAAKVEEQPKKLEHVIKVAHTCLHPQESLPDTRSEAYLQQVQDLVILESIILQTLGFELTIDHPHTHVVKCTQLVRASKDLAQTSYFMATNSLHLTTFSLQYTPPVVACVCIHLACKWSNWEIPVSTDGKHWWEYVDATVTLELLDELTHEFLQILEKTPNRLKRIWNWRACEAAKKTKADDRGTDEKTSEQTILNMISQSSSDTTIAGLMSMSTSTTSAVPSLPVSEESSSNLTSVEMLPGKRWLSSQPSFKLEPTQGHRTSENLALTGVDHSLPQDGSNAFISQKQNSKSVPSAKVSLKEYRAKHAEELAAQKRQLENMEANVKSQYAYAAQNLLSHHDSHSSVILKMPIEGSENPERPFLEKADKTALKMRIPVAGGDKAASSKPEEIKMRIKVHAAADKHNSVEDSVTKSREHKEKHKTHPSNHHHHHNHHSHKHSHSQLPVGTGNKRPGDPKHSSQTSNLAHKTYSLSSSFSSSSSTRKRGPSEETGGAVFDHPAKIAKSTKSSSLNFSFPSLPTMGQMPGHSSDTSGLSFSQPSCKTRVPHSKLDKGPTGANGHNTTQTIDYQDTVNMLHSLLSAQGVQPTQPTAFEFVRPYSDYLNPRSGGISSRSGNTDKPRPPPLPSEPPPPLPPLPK

| IC50 (CDK9/CycT1) | IC50 [1] | Compound |
| --- | --- | --- |
| 14 nM | – | COc1cc(F)c(F)cc1-c1ncnc(Nc2cccc(CS(C)(=O)=O)c2)n1 [Example 1, 4-(4,5-Difluoro-2-methoxyphenyl)-N-{3-[(methylsulfonyl)methyl]phenyl}-1,3,5-triazin-2-amine] |
| 24 nM | – | COc1cc(F)ccc1-c1ncnc(Nc2cccc(CS(C)(=O)=O)c2)n1 [Example 3, 4-(4-Fluoro-2-methoxyphenyl)-N-{3-[(methylsulfonyl)methyl]phenyl}-1,3,5-triazin-2-amine] |
| 3 nM | – | CS(=O)(=O)Cc1cccc(Nc2ncnc(-c3ccc(F)cc3OCc3ccccc3)n2)c1 [Example 4, 4-[2-(Benzyloxy)-4-fluorophenyl]-N-{3-[(methylsulfonyl)methyl]phenyl}-1,3,5-triazin-2-amine] |
| 10 nM | 580 nM | COc1cc(F)ccc1-c1ncnc(Nc2cccc(CS(=O)(=O)C3CCCCC3)c2)n1 [Example 9, N-{3-[(Cyclohexylsulfonyl)methyl]phenyl}-4-(4-fluoro-2-methoxyphenyl)-1,3,5-triazin-2-amine] |
| 6 nM | – | COc1cc(F)ccc1-c1ncnc(Nc2cc(F)cc(CS(C)(=O)=O)c2)n1 [Example 10, 4-(4-Fluoro-2-methoxyphenyl)-N-{3-fluoro-5-[(methylsulfonyl)methyl]phenyl}-1,3,5-triazin-2-amine] |
| 7 nM | 390 nM | CS(=O)(=O)Cc1cccc(Nc2ncnc(-c3cccc4c3OCCC4)n2)c1 [Example 12, 4-(3,4-Dihydro-2H-chromen-8-yl)-N-{3-[(methylsulfonyl)methyl]phenyl}-1,3,5-triazin-2-amine] |
| 8 nM | 690 nM | CS(=O)(=O)Cc1cccc(Nc2ncnc(-c3cccc4c3OCCO4)n2)c1 [Example 18, 4-(2,3-Dihydro-1,4-benzodioxin-5-yl)-N-{3-[(methylsulfonyl)methyl]phenyl}-1,3,5-triazin-2-amine] |
| 3 nM | 320 nM | CS(=O)(=O)Cc1cccc(Nc2ncnc(-c3ccccc3OCc3cccc(Cl)c3)n2)c1 [Example 28, 4-{2-[(3-Chlorobenzyl)oxy]phenyl}-N-{3-[(methylsulfonyl)methyl]phenyl}-1,3,5-triazin-2-amine] |
| 610 nM | 690 nM | CS(=O)(=O)Cc1cccc(Nc2ncnc(-c3ccc(Cl)cc3OC3CCCC3)n2)c1 [Example 29, 4-[4-Chloro-2-(cyclopentyloxy)phenyl]-N-{3-[(methylsulfonyl)methyl]phenyl}-1,3,5-triazin-2-amine] |
| 4 nM | – | CS(=O)(=O)Cc1cccc(Nc2ncnc(-c3cc(F)ccc3OCc3cccc(F)c3)n2)c1 [Example 31, 4-{5-Fluoro-2-[(3-fluorobenzyl)oxy]phenyl}-N-{3-[(methylsulfonyl)methyl]phenyl}-1,3,5-triazin-2-amine] |
| 6 nM | – | COc1cc(F)ccc1-c1ncnc(Nc2ccc(F)c(CS(C)(=O)=O)c2)n1 [Example 33, 4-(4-Fluoro-2-methoxyphenyl)-N-{4-fluoro-3-[(methylsulfonyl)methyl]phenyl}-1,3,5-triazin-2-amine] |
| 14 nM | – | COc1cc(F)ccc1-c1ncnc(Nc2cccc(CS(=O)(=O)C3CC3)c2)n1 [Example 40, N-{3-[(Cyclopropylsulfonyl)methyl]phenyl}-4-(4-fluoro-2-methoxyphenyl)-1,3,5-triazin-2-amine] |
| 5 nM | – | CCOc1cc(F)ccc1-c1ncnc(Nc2cccc(CS(C)(=O)=O)c2)n1 [Example 42, 4-(2-Ethoxy-4-fluorophenyl)-N-{3-[(methylsulfonyl)-methyl]phenyl}-1,3,5-triazin-2-amine] |
| 15 nM | 400 nM | CS(=O)(=O)Cc1cccc(Nc2ncnc(-c3ccc(F)cc3OCC3CC3)n2)c1 [Example 55, 4-[2-(Cyclopropylmethoxy)-4-fluorophenyl]-N-{3-[(methylsulfonyl)methyl]phenyl}-1,3,5-triazin-2-amine] |
| 8 nM | 1100 nM | CS(=O)(=O)Cc1cccc(Nc2ncnc(-c3ccc(F)cc3OCCF)n2)c1 [Example 61, 4-[4-Fluoro-2-(2-fluoroethoxy)phenyl]-N-{3-[(methylsulfonyl)methyl]phenyl}-1,3,5-triazin-2-amine] |
| 3 nM | – | CC#CCOc1cc(F)ccc1-c1ncnc(Nc2cccc(CS(C)(=O)=O)c2)n1 [Example 62, 4-[2-(But-2-yn-1-yloxy)-4-fluorophenyl]-N-{3-[(methylsulfonyl)methyl]phenyl}-1,3,5-triazin-2-amine] |
| 5 nM | 740 nM | Cc1cccc(COc2cc(F)ccc2-c2ncnc(Nc3cccc(CS(C)(=O)=O)c3)n2)c1 [Example 83, 4-{4-Fluoro-2-[(3-methylbenzyl)oxy]phenyl}-N-{3-[(methylsulfonyl)-methyl]phenyl}-1,3,5-triazin-2-amine] |
| 7 nM | 560 nM | CS(=O)(=O)Cc1cccc(Nc2ncnc(-c3ccc(F)cc3OCc3cccc(Cl)c3)n2)c1 [Example 85, 4-{2-[(3-Chlorobenzyl)oxy]-4-fluorophenyl}-N-{3-[(methylsulfonyl)methyl]phenyl}-1,3,5-triazin-2-amine] |
| 6 nM | 730 nM | Cc1cc(COc2cc(F)ccc2-c2ncnc(Nc3cccc(CS(C)(=O)=O)c3)n2)ccn1 [Example 87, 4-{4-Fluoro-2-[(2-methylpyridin-4-yl)methoxy]-phenyl}-N-{3-[(methylsulfonyl)methyl]phenyl}-1,3,5-triazin-2-amine] |
| 4 nM | – | CS(=O)(=O)Cc1cccc(Nc2ncnc(-c3ccc(F)cc3OCc3ccnc(Cl)c3)n2)c1 [Example 88, 4-{2-[(2-Chloropyridin-4-yl)methoxy]-4-fluorophenyl}-N-{3-[(methylsulfonyl)-methyl]phenyl}-1,3,5-triazin-2-amine] |
| 5 nM | 310 nM | CS(=O)(=O)Cc1cccc(Nc2ncnc(-c3ccc(F)cc3OCc3ccncc3)n2)c1 [Example 89, 4-[4-Fluoro-2-(pyridin-4-ylmethoxy)phenyl]-N-{3-[(methylsulfonyl)methyl]phenyl}-1,3,5-triazin-2-amine] |
| 3 nM | 310 nM | CS(=O)(=O)Cc1cccc(Nc2ncnc(-c3ccc(F)cc3OCc3ccc(C#N)cc3)n2)c1 [Example 90, 4-({5-Fluoro-2-[4-({3-[(methylsulfonyl)methyl]phenyl}amino)-1,3,5-triazin-2-yl]phenoxy}methyl)-benzonitrile] |

| Compound | IC50 (CDK9/CycT1) | IC50 [1] |
| --- | --- | --- |
| CCCCOc1cc(F)ccc1-c1ncnc(Nc2cccc(CS(C)(=O)=O)c2)n1 [Example 44, 4-(2-Butoxy-4-fluorophenyl)-N-{3-[(methylsulfonyl)-methyl]phenyl}-1,3,5-triazin-2-amine] | 9 nM | 1000 nM |
| CS(=O)(=O)Cc1cccc(Nc2ncnc(-c3ccc(F)cc3OCCCC(F)(F)F)n2)c1 [Example 59, 4-[4-Fluoro-2-(4,4,4-trifluorobutoxy)phenyl]-N-{3-[(methylsulfonyl)methyl]phenyl}-1,3,5-triazin-2-amine] | 5 nM | 570 nM |
